Experimental data as given in US11274106B2, “Topoisomerase inhibitors with antibacterial and anticancer activity” (THE BOARD OF TRUSTEES OF THE UNIVERSITY OF ILLINOIS, priority 2017, dated 2022).
Like-named read-outs stand apart in the source and are kept apart here.

Columns and labels:
Assay type in all cases: cell-based
[1] = tested on: MDA-MB-231 triple negative breast cancer cells; experiment: Antiproliferative SRB assay, MDA-MB-231; conditions: for IC50: SRB assay, mean ± SEM
Experimental: FIG. 1. […] Cell death measured by SRB assay after 72 hour of compound exposure (n≥3 biological replicates, error bars show SEM). IC50 values given as mean±SEM from ≥3 biological replicates.
To investigate the feasibility of developing a class of antitumor antibiotics based upon the DNM scaffold, the ability of the DNM to exert an antiproliferative effect against MDA-MB-231 breast cancer cells was evaluated.

BT-474 = experiment: Antiproliferative SRB assay, BT-474; conditions: for IC50: Homo sapiens, BT-474, 72 h, Breast cancer, mean ± SEM
Description: (§1) Topoisomerase inhibitors such as DOX are used as single agent and in combination therapy to treat a wide-range of cancer types.

Top2cc = biological target: T1, Top2cc (Homo sapiens, UniProt P11388); experiment: ICE assay for Top2α-DNA complexes in H460 cells; conditions: for Accumulation of Top2cc (ICE assay): 50 μM; for Effect on ETP-induced Top2cc: pre-treatment 30 minutes prior to ETP (50 μM)
T1 construct: endogenous in cells; host or cells: H460
T1 sequence (P11388 whole entry): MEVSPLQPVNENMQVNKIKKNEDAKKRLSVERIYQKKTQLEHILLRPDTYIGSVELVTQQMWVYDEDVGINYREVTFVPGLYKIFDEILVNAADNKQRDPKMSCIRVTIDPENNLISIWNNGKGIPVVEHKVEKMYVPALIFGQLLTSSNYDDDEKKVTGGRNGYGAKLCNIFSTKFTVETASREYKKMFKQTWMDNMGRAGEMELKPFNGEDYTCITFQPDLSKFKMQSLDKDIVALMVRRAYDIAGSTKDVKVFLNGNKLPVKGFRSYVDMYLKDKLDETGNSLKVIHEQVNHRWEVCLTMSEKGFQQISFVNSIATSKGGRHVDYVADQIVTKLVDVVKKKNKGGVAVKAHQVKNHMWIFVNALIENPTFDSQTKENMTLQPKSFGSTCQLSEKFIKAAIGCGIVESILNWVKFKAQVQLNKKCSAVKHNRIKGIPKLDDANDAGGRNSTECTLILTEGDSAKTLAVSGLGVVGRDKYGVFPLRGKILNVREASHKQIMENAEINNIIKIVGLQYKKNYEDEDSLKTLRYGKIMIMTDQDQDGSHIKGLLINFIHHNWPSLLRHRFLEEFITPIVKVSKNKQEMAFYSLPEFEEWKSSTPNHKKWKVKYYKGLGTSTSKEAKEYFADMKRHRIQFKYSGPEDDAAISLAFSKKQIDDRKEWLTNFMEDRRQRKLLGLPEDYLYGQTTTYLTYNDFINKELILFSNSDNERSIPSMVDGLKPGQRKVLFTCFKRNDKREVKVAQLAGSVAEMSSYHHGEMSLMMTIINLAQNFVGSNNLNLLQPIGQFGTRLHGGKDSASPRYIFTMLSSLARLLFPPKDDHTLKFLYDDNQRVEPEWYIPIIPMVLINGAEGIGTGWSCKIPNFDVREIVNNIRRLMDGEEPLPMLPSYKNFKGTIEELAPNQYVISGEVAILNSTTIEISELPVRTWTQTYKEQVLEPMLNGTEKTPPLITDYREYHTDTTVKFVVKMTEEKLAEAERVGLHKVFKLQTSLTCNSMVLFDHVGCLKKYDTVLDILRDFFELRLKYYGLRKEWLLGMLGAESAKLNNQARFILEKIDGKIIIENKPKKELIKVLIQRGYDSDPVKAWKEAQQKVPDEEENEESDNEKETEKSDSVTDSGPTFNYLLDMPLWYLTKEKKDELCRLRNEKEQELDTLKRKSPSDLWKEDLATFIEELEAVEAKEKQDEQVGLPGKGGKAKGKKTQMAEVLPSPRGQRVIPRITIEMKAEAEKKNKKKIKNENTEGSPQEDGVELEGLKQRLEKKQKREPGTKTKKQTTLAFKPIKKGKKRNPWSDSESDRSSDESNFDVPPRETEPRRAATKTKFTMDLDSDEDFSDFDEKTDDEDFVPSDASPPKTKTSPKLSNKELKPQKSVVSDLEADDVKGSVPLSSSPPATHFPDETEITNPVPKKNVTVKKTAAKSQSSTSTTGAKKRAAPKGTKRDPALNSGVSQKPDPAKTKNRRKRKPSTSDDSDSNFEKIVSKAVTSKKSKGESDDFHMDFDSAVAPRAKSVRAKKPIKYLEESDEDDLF
Description: FIG. 3. DNM derivatives are dual Top1/Top2 inhibitors with different modes of inhibition. (a) Inhibition of decatenating ability of Top2α with increasing concentrations of ETP, 6DNM-NH3, 6DNM-Pyr, and Ph-6DNM-NH3. K, kinetoplast DNA; OC, open circular; R, relaxed. (b) Inhibition of relaxing ability of Top1 with increasing concentrations of CPT, 6DNM-NH3, 6DNM-Pyr, and Ph-6DNM-NH3. R, relaxed; S, supercoiled. (c) Detection of Top2a-DNA using the ICE Assay. Genomic DNA ([…]) of H460 cells treated with drugs (50 μM, 30 min) was applied to nitrocellulose membrane and immunoblotted for Top2a. (d) Detection of Top1-DNA adducts using ICE Assay. Same procedure as (c) using 1 μg of DNA. (e) Inhibition of ETP-induced poisoning of Top2a. H460 cells treated with indicated concentrations of inhibitor for 30 min prior to treatment with ETP (50 μM). Detection of Top2α as in (c).
The in vivo complex of enzyme (ICE) assay can be used to distinguish poisons from catalytic inhibitors. The ICE assay consists of isolating the genomic DNA of cells treated with small molecules in a manner the preserves covalent DNA-protein complexes and applying it to nitrocellulose membranes. Because topoisomerase poisons stabilize the cleavage complexes, DNA-protein complexes can be detected by immunoblotting for specific topoisomerases, whereas catalytic inhibitors produce no such result. To determine if DNM derivatives are acting as poisons or catalytic inhibitors, H460 human lung cells were exposed to 50 μM of the Top2 poison ETP, Ph-6DNM-NH3, 6DNM-NH3, and 6DNM-Pyr and assessed for their ability to stabilize Top2cc. […] In a similar fashion, next investigated was the mode of Top1 inhibition using the ICE assay (FIG. 3b).

IMR32 = experiment: Antiproliferative SRB assay, IMR32; conditions: Homo sapiens, IMR-32, 72 h, Neuroblastoma, mean ± SEM
Description: as §1

HCT-116 = experiment: Antiproliferative SRB assay, HCT-116; conditions: Homo sapiens, HCT-116, 72 h, Colon cancer, mean ± SEM
Description: as §1

Top1 = biological target: T2, Top1 (Homo sapiens, UniProt P11387); experiment: Top1 degradation by Western blot, BT-474; conditions: 50 μM for 2, 4, and 6 hours, then 30-minute drug-free media
T2 sequence (P11387 1-765): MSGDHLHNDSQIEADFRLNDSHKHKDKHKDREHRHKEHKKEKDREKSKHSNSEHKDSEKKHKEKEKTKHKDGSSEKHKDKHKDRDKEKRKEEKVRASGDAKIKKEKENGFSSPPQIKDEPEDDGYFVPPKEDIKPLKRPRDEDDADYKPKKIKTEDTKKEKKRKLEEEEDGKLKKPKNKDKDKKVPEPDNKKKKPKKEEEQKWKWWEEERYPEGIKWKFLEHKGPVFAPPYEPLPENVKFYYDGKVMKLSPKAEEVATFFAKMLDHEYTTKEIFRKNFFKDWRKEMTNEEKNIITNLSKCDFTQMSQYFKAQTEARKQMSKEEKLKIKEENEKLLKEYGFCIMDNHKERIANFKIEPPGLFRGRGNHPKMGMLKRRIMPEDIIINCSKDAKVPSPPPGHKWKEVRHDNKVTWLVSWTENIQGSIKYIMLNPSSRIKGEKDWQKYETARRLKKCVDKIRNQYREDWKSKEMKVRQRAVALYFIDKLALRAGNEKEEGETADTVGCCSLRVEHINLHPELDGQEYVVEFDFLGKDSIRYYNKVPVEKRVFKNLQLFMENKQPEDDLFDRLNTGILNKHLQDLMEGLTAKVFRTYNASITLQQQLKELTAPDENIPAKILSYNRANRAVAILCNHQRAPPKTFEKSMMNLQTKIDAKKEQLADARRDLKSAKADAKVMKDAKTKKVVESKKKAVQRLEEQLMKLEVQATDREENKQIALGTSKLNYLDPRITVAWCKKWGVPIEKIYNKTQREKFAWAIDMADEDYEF
Experimental: FIG. 4. Level of Top1-degradation predicts cell line sensitivity. (a) Cells treated with 25 μM of compound for indicated times followed by a 30 minute incubation with drug-free media. Cells were lysed with RIPA and Top1 levels assessed by Western Blot. (b) Degradation of Top1 results in a right-ward shift in the dose-response curve. Effect is most pronounced in Top1-poisons (Ph-6DNM-NH3, CPT) than Top1 catalytic inhibitor (6DNM-Pyr). Cell death measured by SRB assay after 72 hour of compound exposure (n≥3 biological replicates, error bars show SEM).
This difference in mechanism of action between Ph-6DNM-NH3 and 6DNM-Pyr may provide an explanation of the differences in cell line sensitivities between the different DNM derivatives. […] This downregulation serves as a resistance mechanism and the level of Top1 degradation is correlated with reduced sensitivity to CPT. To determine if a similar mechanism is responsible for the reduced sensitivity to Ph-6DNM-NH3 and its derivatives in certain cell lines, the effects of Ph-6DNM-NH3 and 6DNM-Pyr were compared to that of CPT in […] and BT-474, two cancer cell lines known to be deficient and proficient in Top1 degradation, respectively. Cells were treated with 50 μM Ph-6DNM-NH3, 6DNM-Pyr, or CPT for 2, 4, and 6 hours. Following a 30-minute incubation with drug-free media to allow for the reversal of any Top1cc formed, cells were lysed and Top1 concentrations assessed by Western blot (FIG. 4a).

ES-2 = experiment: Antiproliferative SRB assay, ES-2; conditions: Homo sapiens, ES-2, 72 h, Cervical cancer (footnote f), mean ± SEM
Description: as §1

HL-60 = experiment: Cell viability Alamar Blue assay, HL-60; conditions: Homo sapiens, HL-60, 72 h, Leukemia, mean ± SEM
Description: as §1

[2] = Homo sapiens, MDA-MB-231, 72 h, Breast cancer, read-out: 72 hour IC50, MDA-MB-231

| SMILES | IC50 [1, 2] | IC50 ([1]; Homo sapiens, MDA-MB-231, 72 h, 72 hour compound exposure, read-out: MDA-MB-231 IC50) | IC50 (BT-474) | Accumulation of Top2cc (ICE assay) (Top2cc) | Effect on ETP-induced Top2cc (Top2cc) | IC50 (IMR32) | IC50 (HCT-116) | Top1 levels by Western blot in BT-474 (Top1) | IC50 (ES-2) | IC50 (HL-60) | Improvement in potency relative to 6DNM-NH3 ([1]; MDA-MB-231, Table 1) | IC50 ([1]; 72 hour compound exposure, read-out: MDA-MB-231 IC50) | Effectiveness in BT-474 after Top1 degradation (BT-474; FIG. 4b, 72 hour) |
| --- | --- | --- | --- | --- | --- | --- | --- | --- | --- | --- | --- | --- | --- |
| Cc1cc(=O)n(C)c2c3c4c(cc12)c(C)cc(=O)n4C(CN1CCCC1)CO3 (stereo not shown) [Compound 20] | 14 ± 1 nM | 14 ± 1 nM | 91 ± 4 nM | only ETP treatment resulted in the accumulation of Top2cc | dose-dependent decrease in ETP-induced Top2cc | 4.4 ± 0.3 nM | 9 ± 1 nM | minimal effect | 17 ± 4 nM | 48 ± 11 nM |  |  |  |
| Cc1cc(=O)n2c3c(c4c(cc13)c1ccccc1c(=O)n4C)OCC2CN (stereo not shown) [Compound 15] | 30 ± 6 nM |  | 690 ± 50 nM | only ETP treatment resulted in the accumulation of Top2cc | dose-dependent decrease in ETP-induced Top2cc | 8.6 ± 0.1 nM | 37 ± 13 nM | time-dependent decrease in the levels of Top1 | 28 ± 6 nM | 470 ± 90 nM | 4.5 fold | 48 ± 8 nM | similarly reduced, however to a lesser extent |
